This data set in a line: Abuse resistance through nasal inhalation: aminophylline in blood serum after intranasal administration to mice (HPLC). It is filed as in vivo, male mice (CBA C50 Black F1 line). Conditions: 10 μL of solution, blood from retro-orbital sinus about 3 to 5 minutes after administration, pool of three mice. As for the experimental part: 10 μL of each experimental solution was administered to a corresponding pool of three mice. About 3 to 5 minutes after administration, blood samples were drawn from the retro-orbital sinuses (sinus retroorbitalis) of the mice, combined and centrifuged for 10 minutes at 3000 rpm. The collected serum was then deproteinized with 0.3 M trichloroacetic acid at a serum to acid ratio of about 0.2 ml to 1.0 ml. To complete the precipitation of proteins, the samples were maintained in a thermostat at 20° C. for about 20 minutes and then filtered through a 0.45 micron acetate cellulose filter. The filtrates were analyzed for aminophylline concentration by injecting 20 μL samples into an HPLC, Schimadzu LC-20AD with photodiode array detector (PDA) and Phenomenex Luna 5μ C18, […] column. Acetonitrile in 0.1M phosphoric acid was used as a Mobile phase with linear gradient of acetonitrile of 1-50% vol., pressure 6.3 Mpa, flow rate 0.5 ml/min, and detector wavelength of about 272 nm.
The chromatograms of serums from Controls 1 and 2 with aminophylline concentration of 4% by weight and 24% by weight are shown in FIGS. 9 and 10, respectively. Similar chromatograms were prepared for all of the samples. The areas of the aminophylline peaks that are proportional to its concentration in the blood taken from the retro-orbital sinus, are presented in Table 6 below: […]

Each structure is given as a SMILES string.

As to `Cn1c(=O)c2[nH]cnc2n(C)c1=O` [Control-1, aminophylline], the “Aminophylline Concentration in Blood Serum” value is 19.91 µg/mL.

Consider `Cn1c(=O)c2[nH]cnc2n(C)c1=O` [Control-2, aminophylline], for which the “Aminophylline Concentration in Blood Serum” value is 20.09 µg/mL.

These data come from patent US9649282B2, “Diversion- and/or abuse-resistant compositions and methods for making the same” (Invincible Biotechnology, LLC, priority 2010, dated 2017).
